Results published in patent US10212958B2, “Method for producing stabilized whole wheat flour” (Intercontinental Great Brands LLC, priority 2011, dated 2019).
Several values for one entry are separate records, joined by “and”; a condition that tells them apart may be missing. Identical values can stand only once.

Assays:
[1] = tested on: Novozyme lipase from Aspergillus oryzae; assay: Titrimetric lipase activity after 40 min pre-incubation of the enzyme in acid solution; type: biochemical
Procedure: The objective of this example was to test the effect of acid type and concentration on the lipase activity after pre-incubation of the enzyme for 40 minutes in acid solution. The following acids and levels were tested; (1) 5 ml lactic acid (8 g/1000 ml pH 2.57), add 20 μl lipase and 980 μl water inhibition 40 min; (2) 5 ml lactic acid (2 g/1000 ml pH 2.85), add 20 μl lipase and 980 μl water inhibition 40 min; (3) 5 ml lactic acid (16 g/1000 ml pH 2.48), add 20 μl lipase and 980 μl water inhibition 40 min; (4) 5 ml acetic acid (1 g/1000 ml pH 2.80), add 20 μl lipase and 980 μl water inhibition 40 min; (5) 5 ml HCL (4 g/1000 ml, pH 1.5), add 20 μl lipase and 980 μl water inhibition 40 min; (6) 5 ml green tea extract (8 g/1000 ml), add 20 μl lipase and 980 μl water inhibition 40 min.
Lipase (3.1.1.3) activity was adapted from the method set forth in “Worthington, Von.; The Worthington Manual; 1993 from Worthington Biochemical Corporation, 730 Vassar Avenue, Lakewood, N.J. 08701”.
H. Olive oil-gum Arabic emulsion: Prepare by dissolving 16.5 grams of gum Arabic in 130 ml of reagent grade water. Once the material is in solution, dilute to a final volume of 165 ml with reagent grade water. Add 20 ml of reagent grade olive oil and 15 grams crushed ice. Blend the mixture in a Waring blender at low speed for 3 min and filter the emulsion through glass wool. Prepare fresh daily. Enzyme:
The titration can be measured with a laboratory pH meter (a Corning pH meter 360i equipped with A-58905-66 High-performance combination pH electrode).
Blank rate determination: Adjust the pH of the reaction mixture to 8.0 and record the volume of titrant required to maintain the pH at 8.0 for 3-4 minutes after a constant rate is achieved. Determine the “blank rate” as the volume of titrant added per minute from the final linear portion of the curve.
Sample determination: at zero time, add appropriately diluted enzyme and readjust the pH to 8.0 if necessary. Record the volume of titrant required to maintain the pH at 8.0 for 5-6 minutes. Determine the “sample rate” as the volume of titrant added per minute from the linear portion of the curve.

[2] = Solvent Retention Capacity (SRC) of flour, adapted from AACC 56-10; type: physicochemical; design: Flour SRC sucrose / Flour SRC Sodium carbonate / Flour SRC Lactic acid / Flour SRC Water: unit not given here
Procedure: Solvent Retention Capacity (SRC) serves as a practical test to monitor the function of specific flour components, such as the amount of damaged starch. The SRC assay method used was adapted and modified from AACC method 56-10, according to the following procedure:
• 50 ml centrifuge tubes+caps • 5% weight sodium carbonate solvent • Centrifuge (IEC, Centra GP8, 269 rotor, 2130 rpm) Procedure: • 1. Weigh 50 ml centrifuge tubes+caps (for special tubes weight O-ring seals) • 2. Weigh and add 5.00 g of bran-germ mixture to each tube (determine moisture content of mixture) • 3. Add 25 g of solvent (pre-weighed solvent aliquots) to each tube • 4. Allow it to hydrate for 20 min, shaking every 5 min (5, 10, 15, 20) • 5. Centrifuge for 15 min at 1000×g • 6. Decant supernatant and drain 5 min at 45° angle and 5 min at 90° angle. • 7. Put cap back and weigh pellet

[3] = AACC 10-53 Cookie Test Baking; settings: lactic acid 3000 ppm, green tea extract 7000 ppm
From the text: AACC 10-53 Cookie Test Baking Method was designed at Nabisco Biscuit Company for evaluation of ingredient functionality and predictive correlation between sensory and mechanical texture analysis (mechanical texture analysis by TAXT2 Texture analyzer 3 point bend or puncture test). The test is an improvement over AACC 10-52 Sugar-Snap Cookie Test Baking Method as confirmed by USDA Soft Wheat Quality Lab (Wooster Ohio). The AACC 10-53 test was adopted as the official method of the American Association of Cereal Chemists after collaborative testing by the Soft Wheat Quality Committee in 1992. The equipment, cookie dough composition, mixing procedure, baking procedure, measurement procedure, etc. used in the test are: The Standard Formulation AACC 10-53 Single Batch to Make 4 Test Cookies is: [table] [table] The general mixing procedure used is: The baketime is defined as the time required to produce a weight loss of 13.85% during baking of the formulation at 400 F. Portion four 60 g pieces of dough with minimum deformation and place on cookie sheet. Lay rolling pin across gauge bars of cookie sheet allowing weight of pin to compress the dough pieces without additional compressive force. Pick up rolling pin and place on gauge bars at end of cookie sheet, and roll only once away from you. Cut cookies with 60 mm cutter, and carefully lift scrap dough with small spatula. […]

[4] = tested on: free fatty acids formed in whole grain flour; assay: Free fatty acid content of whole grain flour, fresh and after accelerated storage (SPE, GC-FID); design: species or system wheat
Procedure: The objective of this example was to test the effect of acid tempering on the stability of whole grain flour during storage. The amount of free fatty acid formed was measured after flour storage in a sealed glass jar for 30 days under accelerated storage conditions of 92° F. […] The flours tested were: […] Results were compared to the amount of free fatty acids formed in untreated control flour. Whole grain flours were made with natural proportion of bran component and endosperm obtained from the flour mill. Whole grain flour ash content was used to confirm composition. Free fatty acid content of whole grain flour (fresh flour and 30 days aged flour) was determined according to the following method: Free fatty acid content of the flours was adapted from the method set forth in “Jong, C.; Badings, H. T.; Journal of High Resolution Chromatography; 1990; Determination of Free Fatty Acids in Milk and Cheese Procedures for Extraction, Clean up, and Capillary Gas Chromatography Analysis”. Lipid extracts, containing free fatty acids, are obtained from foods by extraction with acidified organic solvents. The anhydrous lipid extracts are passed through a weak anion exchange SPE cartridge to isolate the free fatty acids from the coextracted material, particularly neutral glycerides. • a. […] HP5890 Series II] • b. Autosampler compatible with the GC, [example: HP7673] • c. Software system capable of collecting chromatographic data, calculating statistics and tabulating results • d. Analytical balance with 0.0001 g resolution, 150 g capacity • e. Centrifuge capable of 3000 rpm (2050 rcf), with temperature control, (optional) • f. Polytron able to homogenize samples at 25000 rpm [example: Brinkmann Instruments, Polytron Kinematica AG Model PT 1300 D] • g. Vortex Mixer • h. Solvent Dispensers with inert plastic components [example: […] Column: […] SPE cartridges: […] Glass centrifuge test tubes with teflon lined screw caps, size: 16×125 mm • 4. Corex glass centrifuge tubes with teflon lined screw caps, 45 mL [example: COREX II No. 8422-A] • 5. Whatman Filter paper #1, 125 mm Diameter • 6. Pyrex brand filtering funnel, short stem • 7. Disposable Culture Tubes, borosilicate glass 16×150 mm [example: VWR Cat #47729-580] • 8. Glass vials with teflon lined screw caps, 4 mL. [example: Kimble Cat #60940A 4] • 9. Autosampler vials, borosilicate glass, crimp-top with teflon lined caps • 10. Amber borosilicate bottles with teflon lined screw cap, 100 mL • 11. Clear borosilicate bottle with teflon lined screw cap, 250 mL • 12. Graduated cylinders: 250 mL, 100 mL • 13. […] Glass volumetric pipettes class A 5, 2, 1 mL and graduated 10, 5 mL • 15. Disposable Pasteur pipettes: 53⁄4 and 9 inch • 16. Microspatula, spatula, and polypropylene sample transfer tubes Reagents/Solutions Reagents and Standards • 1. Ethanol-200 proof, anhydrous, 99.5%+, stored in amber glass [Aldrich #45, 983-6 or equivalent] • 2. Hexanes-GC grade [B&J #216-4 or equivalent] • 3. iso-Propanol-GC grade [B&J #323-4 or equivalent] • 4. Methyl-tert-butylether (MTBE)-GC grade [B&J #242-4 or equivalent] • 5. Methylene chloride-GC grade [B&J #299-4 or equivalent] • 6. […] Sulfuric acid-ACS reagent, 95.0-98.0% [Fisher Reagent ACS #A800-500 or equivalent] • 8. Water Type 1 [Fisher HPLC #W5-4 or equivalent] • 9. Diatomaceous Earth [Leco part #502-327 or equivalent] • 10. […] Standards (Standard Preparation See Appendix 13.1) • a. Internal Standard: 11:0; Surrogates: 9:0 and 13:0 • b. Matrix Spike (MS) standard working solution in ethanol: MS @ 50 µg/mL. This level may be appropriate for low to mid-level determinations. Generally the FFA levels vary tremendously within a given matrix. Consequently a spike solution of varying amounts per individual FFA may be necessary per matrix. • c. Calibration Standards in hexanes establish linear range: […] Comment: 18:1 and 18:2 calculations are based on 18:0 response factor. • d. […]

[5] = Flour moisture (AACC Method 44-15A); type: physicochemical; settings: coarse bran fraction before recombining
Procedure: Whole grain flour pH was measured in a 10% slurry (one part flour to 9 part water) using a Corning pH meter 360i equipped with an A-58905-66 High-performance combination pH electrode. Ash is determined according to AOAC official method 923.03 for measuring ash in flour. Flour moisture was determined according to AACC Method 44-15A.

[6] = Whole grain flour pH in 10% slurry; type: physicochemical
[7] = lactic acid 3000 ppm, green tea extract 7000 ppm
[8] = after 30 days at 92 F, flour at about pH=4.5

Compound: CC(=O)O [Acetic acid, acetic acid]
- Lipase activity ([1]; 40 min acid pre-treat 0.005 g/15 ml, 0.006 M, pH 2.8): 5.33 Units/μl

Compound: CC(O)C(=O)O (stereo not shown) [Lactic acid, lactic acid]
- Lipase activity ([1]; 40 min acid pre-treat 0.02 g/15 ml, 0.015 M, pH 2.85): 6.45 Units/μl
- Lipase activity ([1]; 40 min acid pre-treat 0.04 g/15 ml, 0.030 M, pH 2.57): 5.8 Units/μl
- Lipase activity ([1]; 40 min acid pre-treat 0.08 g/15 ml, 0.059 M, pH 2.48): 4.15 Units/μl
- flour strength as measured by lactic acid SRC value ([2]; as a function of temper time and amount of lactic acid added, FIG. 7): did not decrease flour strength
- Flour SRC Lactic acid [2, 7]: 69.11 and 69.40
- Flour SRC Sodium carbonate [2, 7]: 76.58 and 78.67
- Flour SRC Water [2, 7]: 59.53 and 60.35
- Flour SRC sucrose [2, 7]: 95.77 and 94.23
- Cookie dough pH [3]: 7.65 and 7.52
- Flour fatty acid formation ([4]; after 28 days at 92 F, about 9000 ppm lactic acid concentration and 4.5 pH): 1425 ppm
- Flour fatty acid formation [4, 8]: 1382 ppm
- Whole grain flour fatty acid content after storage ([4]; storage at 82 F, compared to control, Example 9): reduced compared to control
- FFA (ppm) 3 week at 28 C. ([4]; whole grain flour, lactic acid 3000 ppm, green tea extract 7000 ppm (dry weight/initial kernel weight)): 2628 ppm and 2364 ppm
- coarse bran moisture [5]: 14.49
- break flour pH ([6]; break flour fraction before recombining): 4.88
- fine bran pH ([6]; fine bran fraction before recombining): 4.52
- Flour pH [6, 7]: 5.54 and 5.56
- Flour pH ([6]; soft red whole grain flour from treated wheat): 5.6

Compound: Cl [hydrochloric acid]
- Lipase activity ([1]; 40 min acid pre-treat 0.02 g/15 ml, 0.036 M, pH 1.5): 0 Units/μl
- Flour fatty acid formation [4, 8]: 746 ppm

Compound: O=P(O)(O)O [phosphoric acid]
- Flour fatty acid formation [4, 8]: 1592 ppm
